# Entries after “also recorded” stand apart in the source; their conditions may differ.
# Test system: human erythrocytes
# Assay: ATP release from erythrocytes at adjusted oxygen / CO2 partial pressure, luciferin assay
# Assay type: cell-based
# Conditions: for ATP release at various CO2 partial pressures: PCO2 0 to 80 mmHg, 5 minutes; for ATP release from erythrocytes in relation to oxygen partial pressure: PO2 0-150 mmHg, 37° C., 5 min, bezafibrate 10^−4 mol/L (30 min), 100% CO gas 1 min, NO 0.5 equivalents to hemoglobin
# Procedure: Human peripheral blood sample (20 ml) was taken, heparinized and centrifuged at 2000 rpm for 7 minutes. The erythrocyte pellet was collected and washed. Then, an erythrocyte suspension (1×10^7 cells/ml) was prepared with Krebs buffer. A tightly sealed cuvette containing 1.8 ml of Krebs buffer in which oxygen concentration is adjusted at a desired level within a range of 0-150 mmHg was incubated at 37° C. A 200 μl aliquot of the erythrocyte suspension was injected into the tightly sealed cuvette with a microsyringe. After 5 minutes, the cuvette was placed in ice at 4° C. to terminate the reaction. A 200 μd sample was taken while it was still 4° C., and centrifuged. The ATP in the resultant supernatant was quantitatively determined by luciferin assay.
# In this example, the effects of carbon monoxide-saturated erythrocytes (CO-Hb) and NO treated erythrocytes (αNO-Hb) on ATP release were examined. The method was as described in Example 1 above. In order to examine the effect of NO, an experiment was conducted using erythrocytes prepared as described below. Briefly, collected erythrocytes were completely deoxygenated by feeding argon gas. Then, NO-glutathione was added thereto so that the concentration of this substance to the concentration of Hb was 1:2. Several minutes after the addition, the erythrocytes were centrifuged and recovered. The hemoglobin contained in the above erythrocytes is expressed as “αNO-Hb”.
# Briefly, adenosine was added to the extracellular fluid of erythrocytes for 5 minutes. To a tightly sealed cuvette containing Krebs buffer adjusted to have a desired oxygen partial pressure within a range of 0-150 mmHg, the erythrocyte suspension was injected and the reaction was terminated 1 minute thereafter.
# The method used was according to the method in Example 1. The amounts of ATP release when erythrocytes were exposed to various CO2 partial pressures (PCO2) from 0 to 80 mmHg for 5 minutes were measured.
smiles,measurement,setting,value
O=C=O [carbon dioxide],ATP release at various CO2 partial pressures,Anoxia (no oxygen state),not affected by PCO2
same,ATP release at various CO2 partial pressures,Normoxia,increased at 60-80 mmHg
Nc1ncnc2c1ncn2[C@@H]1O[C@H](CO)[C@@H](O)[C@H]1O [adenosine],enhancement of ATP release under normal oxygen concentration,1 μmol/L adenosine in extracellular fluid 5 min,enhanced almost two times
same,enhancement of ATP release under no oxygen or low oxygen,"1 μmol/L adenosine in extracellular fluid 5 min, then no/low oxygen 1 minute",enhanced almost two times; also recorded: increases ATP release about two times; also recorded: enhanced about two times
same,"ATP release enhancement, adenosine combined with carbon dioxide","Normoxia, raised PCO2, in the presence of adenosine",synergetic high effect
"O=S(=O)(O)c1cc(N=C=S)ccc1C=Cc1ccc(N=C=S)cc1S(=O)(=O)O [DIDS, 4,4′-diisothiocyanate-stilbene-2,2′-disulfonic acid]",ATP release increase due to low oxygen,"10^−4 mol/L DIDS, oxygen partial pressures of 0-140 mmHg",inhibits ATP release increase due to low oxygen
same,"amount of ATP release, DIDS addition vs no addition","CO(+) erythrocytes, presence/absence of adenosine",no difference
same,"ATP release increase due to low oxygen, concentration-dependent effect","CO-untreated erythrocytes, Anoxia 0 mmHg vs Normoxia",inhibited depending on the concentration of DIDS
"[C-]#[O+] [CO, carbon monoxide]",ATP release from erythrocytes in relation to oxygen partial pressure,,this ability was completely eliminated
same,ATP release from erythrocytes in relation to oxygen partial pressure,listed as carbon monoxide,released little ATP regardless of the oxygen partial pressure
"N[C@@H](CCC(=O)N[C@@H](CSN=O)C(=O)NCC(=O)O)C(=O)O [NO derivative, NO-glutathione]",ATP release from erythrocytes in relation to oxygen partial pressure,,released ATP constantly regardless of the oxygen partial pressure
"[N]=O [NO, nitric oxide]",ATP release from erythrocytes in relation to oxygen partial pressure,,released ATP constantly regardless of the oxygen concentration
